This is an account of results in PubChem BioAssay AID328 (DTP/NCI, 2004).

SMILES strings stand for the structures. “And” between values parts separate entries of the source, which are not always exact repeats. Equal entries are not always repeated. Inconclusive results and toxic doses are left out.

For the experiment, the system named is BDF1 mice, P388 leukemia ip, median survival T/C. As to the kind of experiment: NCI In Vivo Anticancer Drug Screen. Data for tumor model P388 Leukemia (intraperitoneal) in B6D2F1 (BDF1) mice. To be noted: endpoint: median survival time, higher = longer survival. The procedure, abridged:
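In tumour-bearing mice, survival after compound treatment is set against the vehicle group and given as a quotient.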

[1] abbreviates: dose: 6.25 mg/kg/injection, schedule: Q01DX009 (ip), vehicle: Klucel (hydroxypropylcellulose) (HPC).
[2] abbreviates: dose: 100.0 mg/kg/injection, schedule: Q04DX003 (ip), vehicle: saline with Tween-80.
The mark [3] stands for this setting: dose: 50.0 mg/kg/injection, schedule: Q01DX009 (ip), vehicle: saline with Tween-80.
Where [4] appears, read: dose: 100.0 mg/kg/injection, schedule: Q01DX009 (ip), vehicle: saline with Tween-80.
Setting [5] is: dose: 200.0 mg/kg/injection, schedule: Q01DX009 (ip), vehicle: saline with Tween-80.
Where [6] appears, read: dose: 6.25 mg/kg/injection, schedule: Q01DX009 (ip), vehicle: water.
The mark [7] stands for this setting: dose: 12.5 mg/kg/injection, schedule: Q01DX009 (ip), vehicle: water.
Where [8] appears, read: dose: 25.0 mg/kg/injection, schedule: Q01DX009 (ip), vehicle: water.
[9] abbreviates: dose: 50.0 mg/kg/injection, schedule: Q01DX009 (ip), vehicle: water.
[10] abbreviates: dose: 25.0 mg/kg/injection, schedule: Q01DX009 (ip), vehicle: Klucel (hydroxypropylcellulose) (HPC).
Where [11] appears, read: dose: 50.0 mg/kg/injection, schedule: Q01DX009 (ip), vehicle: Klucel (hydroxypropylcellulose) (HPC).
[12] abbreviates: dose: 100.0 mg/kg/injection, schedule: Q01DX009 (ip), vehicle: Klucel (hydroxypropylcellulose) (HPC).

As for `O=C(c1ccccc1)C(O)(CC(c1ccccc1)[P+](c1ccccc1)(c1ccccc1)c1ccccc1)c1ccccc1` (centres undefined), the T/C is, setting by setting: (dose: 0.87 mg/kg/injection, schedule: Q01DX009 (ip), vehicle: saline) 108 % of control; (dose: 3.12 mg/kg/injection, schedule: Q01DX009 (ip), vehicle: Klucel (hydroxypropylcellulose) (HPC)) 122 % of control; (dose: 3.5 mg/kg/injection, schedule: Q01DX009 (ip), vehicle: saline) 120 % of control; under setting [1], 113 % of control; (dose: 6.25 mg/kg/injection, schedule: Q04DX003 (ip), vehicle: saline with Tween-80) 109 % of control; (dose: 12.5 mg/kg/injection, schedule: Q04DX003 (ip), vehicle: Klucel (hydroxypropylcellulose) (HPC)) 104 % of control. Further, under “dose: 12.5 mg/kg/injection, schedule: Q04DX003 (ip), vehicle: saline with Tween-80”, the T/C is 118 % of control.

Take `Cc1ccc(NC(=O)OCCSCCOC(=O)Nc2ccc(C)cc2)cc1`: the T/C by setting is: (dose: 25.0 mg/kg/injection, schedule: Q04DX003 (ip), vehicle: other) 95 % of control; (dose: 50.0 mg/kg/injection, schedule: Q04DX003 (ip), vehicle: other) 90 % of control; (dose: 100.0 mg/kg/injection, schedule: Q04DX003 (ip), vehicle: other) 90 % of control; (dose: 200.0 mg/kg/injection, schedule: Q04DX003 (ip), vehicle: other) 90 % of control; (dose: 400.0 mg/kg/injection, schedule: Q04DX003 (ip), vehicle: other) 100 % of control.

As for `OCCC1(CCO)CCCCC1`, the T/C by setting is: (dose: 10.0 mg/kg/injection, schedule: Q01DX009 (ip), vehicle: saline with Tween-80) 100 % of control; (dose: 20.0 mg/kg/injection, schedule: Q01DX009 (ip), vehicle: saline with Tween-80) 105 % of control; (dose: 40.0 mg/kg/injection, schedule: Q01DX009 (ip), vehicle: saline with Tween-80) 110 % of control; (dose: 50.0 mg/kg/injection, schedule: Q04DX003 (ip), vehicle: saline with Tween-80) 109 % of control; under setting [2], 100 % of control.

`CN(C)P(=O)(Oc1ccccc1)N(C)C`: the T/C reads like this: (dose: 25.0 mg/kg/injection, schedule: Q01DX009 (ip), vehicle: saline with Tween-80) 94 % of control; under setting [3], 120 % of control; under setting [4], 102 % of control and 103 % of control; under setting [5], 100 % of control.

As for `CNNCc1ccc(/C=N/NC(N)=S)cc1`, the T/C by setting is: under setting [6], 106 % of control; under setting [7], 114 % of control; under setting [8], 92 % of control; under setting [9], 92 % of control.

With `CC1(C)C2CC=C(C[P+](c3ccccc3)(c3ccccc3)c3ccccc3)C1C2` (centres undefined), where the note is “dose: 3.3 mg/kg/injection, schedule: Q01DX009 (ip), vehicle: saline sonified”, the T/C was 120 % of control.

With `NC(Cc1c[nH]c2ccccc12)C(=O)OCc1ccccc1` (centres undefined), the T/C by setting is: (dose: 3.12 mg/kg/injection, schedule: Q01DX009 (ip), vehicle: water) 106 % of control; (dose: 3.12 mg/kg/injection, schedule: Q04DX003 (ip), vehicle: water) 100 % of control; under setting [6], 101 % of control; (dose: 6.25 mg/kg/injection, schedule: Q04DX003 (ip), vehicle: water) 88 % of control; under setting [7], 93 % of control; (dose: 12.5 mg/kg/injection, schedule: Q04DX003 (ip), vehicle: water) 123 % of control. Moreover, the T/C is 97 % of control under setting [8]; 108 % of control (dose: 25.0 mg/kg/injection, schedule: Q04DX003 (ip), vehicle: water); 92 % of control under setting [9]; 97 % of control (dose: 50.0 mg/kg/injection, schedule: Q04DX003 (ip), vehicle: water); 101 % of control (dose: 100.0 mg/kg/injection, schedule: Q01DX009 (ip), vehicle: water); 110 % of control (dose: 200.0 mg/kg/injection, schedule: Q01DX009 (ip), vehicle: water).

On to `COC(=O)c1ccccc1OP(=O)(N(C)C)N(C)C`, for which the T/C was 94 % of control under setting [3], 110 % of control under setting [4] and 105 % of control under setting [5].

`CCC(c1ccc(OC)cc1)C(NCC(=O)NNC(=O)CNC(c1ccc(OC)cc1)C(CC)c1ccc(OC)cc1)c1ccc(OC)cc1` (centres undefined): the T/C was 110 % of control (dose: 12.5 mg/kg/injection, schedule: Q04DX002 (ip), vehicle: saline with Tween-80); 88 % of control (dose: 25.0 mg/kg/injection, schedule: Q04DX002 (ip), vehicle: saline with Tween-80); 94 % of control (dose: 50.0 mg/kg/injection, schedule: Q04DX002 (ip), vehicle: saline with Tween-80).

As for `[O-][n+]1c(-c2ccccc2)c(C(O)c2ccccc2)nc2ccccc21` (centres undefined), the T/C runs as follows: (dose: 100.0 mg/kg/injection, schedule: Q01DX001 (ip), vehicle: saline with Tween-80) 105 % of control; (dose: 200.0 mg/kg/injection, schedule: Q01DX001 (ip), vehicle: saline with Tween-80) 94 % of control; (dose: 400.0 mg/kg/injection, schedule: Q01DX001 (ip), vehicle: saline with Tween-80) 96 % of control.

On to `CCOC(=O)C1C2OC(=O)C(C(=O)C2CN(CCCl)CCCl)C1C1CC=C(CC2=CCC(C3C4C(=O)OC(C(CN(CCCl)CCCl)C4=O)C3C(=O)OCC)CC2)CC1` (centres undefined), for which the T/C was 169 % of control under setting [1]; 165 % of control (2×) and 178 % of control (dose: 12.5 mg/kg/injection, schedule: Q01DX009 (ip), vehicle: Klucel (hydroxypropylcellulose) (HPC)); 176 % of control and 184 % of control and 189 % of control under setting [10]; 184 % of control and 208 % of control and 215 % of control under setting [11]; 265 % of control and 291 % of control and 109 % of control under setting [12].

`O=C(O)C1CC/C=C\CCC1` (centres undefined): the T/C reads like this: (dose: 100.0 mg/kg/injection, schedule: Q04DX003 (sc), vehicle: olive oil, sesame oil, peanut oil) 100 % of control; (dose: 200.0 mg/kg/injection, schedule: Q04DX003 (sc), vehicle: olive oil, sesame oil, peanut oil) 100 % of control; (dose: 400.0 mg/kg/injection, schedule: Q04DX003 (sc), vehicle: olive oil, sesame oil, peanut oil) 91 % of control.

Consider `CC(=O)C1C(=O)C(=O)OC1C` (centres undefined), for which the T/C is, setting by setting: under setting [11], 109 % of control; under setting [12], 95 % of control; under setting [2], 113 % of control; (dose: 200.0 mg/kg/injection, schedule: Q01DX009 (ip), vehicle: Klucel (hydroxypropylcellulose) (HPC)) 90 % of control; (dose: 200.0 mg/kg/injection, schedule: Q04DX003 (ip), vehicle: saline with Tween-80) 104 % of control.

As for `CNc1ccc(/C=C2\C=Cc3ccccc32)cc1`, the T/C (dose: 12.0 mg/kg/injection, schedule: Q01DX009 (ip), vehicle: Klucel (hydroxypropylcellulose) (HPC)) was 118 % of control; the T/C (dose: 12.0 mg/kg/injection, schedule: Q01DX009 (ip), vehicle: gum acacia) is 107 % of control; the T/C (dose: 12.5 mg/kg/injection, schedule: Q04DX003 (ip), vehicle: gum acacia) was 103 % of control; the T/C under setting [10] was 100 % of control; the T/C (dose: 25.0 mg/kg/injection, schedule: Q01DX009 (ip), vehicle: gum acacia) is 103 % of control; the T/C (dose: 25.0 mg/kg/injection, schedule: Q04DX003 (ip), vehicle: Klucel (hydroxypropylcellulose) (HPC)) was 104 % of control. Besides, the T/C was 100 % of control (dose: 25.0 mg/kg/injection, schedule: Q04DX003 (ip), vehicle: gum acacia); 90 % of control under setting [11]; 92 % of control (dose: 50.0 mg/kg/injection, schedule: Q01DX009 (ip), vehicle: gum acacia); 100 % of control (dose: 50.0 mg/kg/injection, schedule: Q04DX003 (ip), vehicle: Klucel (hydroxypropylcellulose) (HPC)); 103 % of control (dose: 50.0 mg/kg/injection, schedule: Q04DX003 (ip), vehicle: gum acacia); 86 % of control and 95 % of control (dose: 100.0 mg/kg/injection, schedule: Q04DX003 (ip), vehicle: Klucel (hydroxypropylcellulose) (HPC)).

Take `CCOC(=O)C(N)C[S][Sn]([CH3])([CH3])[Cl]` (centres undefined): the T/C is, setting by setting: (dose: 6.25 mg/kg/injection, schedule: Q01DX009 (ip), vehicle: saline) 122 % of control; (dose: 12.5 mg/kg/injection, schedule: Q01DX009 (ip), vehicle: saline) 124 % of control.
